Assay results as given in paper PMC12083526, “Capturing structural intermediates in an animal-like cryptochrome photoreceptor by time-resolved crystallography” (Science Advances, 2025).

What was measured:
[1] = biological target: T1, CraCRYΔCTE (CraCRY; animal-like cryptochrome, aCRY) (Chlamydomonas reinhardtii, UniProt A8J8W0); test: serial femtosecond crystallography (room temperature); details: crystals reduced with 50 mM DTT and white light, anaerobic; FAD-binding site
T1 construct: gene CHLRE_06g278251v5; C-terminal extension E496-E595 replaced by a His tag; pET28a-based; E. coli BL21(DE3); PHR domain plus helix α22

[2] = biological target: T2, CraCRYΔCTE (CraCRY; animal-like cryptochrome, aCRY) (Chlamydomonas reinhardtii, UniProt A8J8W0, E384Q); test: steady-state photoreduction, UV/Vis absorption; assay type: binding; details: white light on ice, aerobic, no external reductant; 20 mM phosphate, 500 mM NaCl, 10% glycerol, pH 5.5-8.5
T2 construct: gene CHLRE_06g278251v5; C-terminal extension E496-E595 replaced by a His tag; pET28a-based; E. coli BL21(DE3); PHR domain plus helix α22
T2 sequence (A8J8W0 entry or part of it E384Q): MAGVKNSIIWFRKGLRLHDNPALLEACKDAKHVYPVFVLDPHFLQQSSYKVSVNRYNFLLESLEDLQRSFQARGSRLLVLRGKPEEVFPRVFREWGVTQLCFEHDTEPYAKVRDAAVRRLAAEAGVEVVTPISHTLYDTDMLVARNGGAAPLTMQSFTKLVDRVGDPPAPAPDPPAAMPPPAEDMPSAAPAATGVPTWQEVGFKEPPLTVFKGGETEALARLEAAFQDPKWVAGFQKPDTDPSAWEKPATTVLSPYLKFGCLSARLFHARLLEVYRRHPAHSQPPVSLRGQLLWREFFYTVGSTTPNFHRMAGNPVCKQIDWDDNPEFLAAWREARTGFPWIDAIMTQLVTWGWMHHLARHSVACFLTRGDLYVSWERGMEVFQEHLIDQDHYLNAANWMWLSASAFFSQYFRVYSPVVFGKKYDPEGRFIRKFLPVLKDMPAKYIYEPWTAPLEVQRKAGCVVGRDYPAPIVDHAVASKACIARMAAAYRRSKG

T1 sequence (A8J8W0 entry or part of it, stated change not applied): as the sequence (A8J8W0 entry or part of it E384Q) above, with Q384E counted along it

Structure (SMILES)	serial femtosecond crystallography (room temperature) [1]	steady-state photoreduction, UV/Vis absorption [2]
Cc1cc2c(cc1C)N(C[C@H](O)[C@H](O)[C@H](O)COP(=O)(O)OP(=O)(O)OC[C@H]1O[C@@H](n3cnc4c(N)ncnc43)[C@H](O)[C@@H]1O)c1[nH]c(=O)[nH]c(=O)c1N2 [FADH^−]	CraCRY structures in FADox and FADH^− states at room temperature are almost identical	–
Cc1cc2nc3c(=O)[nH]c(=O)nc-3n(C[C@H](O)[C@H](O)[C@H](O)COP(=O)(O)OP(=O)(O)OC[C@H]3O[C@@H](n4cnc5c(N)ncnc54)[C@H](O)[C@@H]3O)c2cc1C [FADox, flavin adenine dinucleotide]	–	E384Q is inefficient to generate the neutral radical FADH^• at physiological pH
